# Reference: patent US20190070174A1, “METHODS OF TREATING NEURODEGENERATIVE DISEASES” (priority 2016, published 2019)
# Key:
# [1] = tested on: ATXN3Q81.Luc fusion protein; assay: Confirmation dose-response, ATXN3 levels by immunoblotting; format: cell-based, human; conditions: 293.ATXN3Q81Luc cells
# From the text: Full-length ATXN3 (Accession number ABS29269) carrying either a normal or an expanded polyQ tract (Q26 or Q81) was subcloned in the vector pcDNA3.1 FLAG.firefly Luciferase. The mammalian expression plasmids pcDNA.FLAG.ATXN3Q26.Luc and pcDNA.FLAG.ATXN3Q81.Luc were confirmed by sequencing and shown to express N-terminal FLAG-tagged ATXN3Q26 or ATXN3Q81 fused with firefly Luciferase (Luc), respectively. These neomycin-resistant plasmids were transfected into HEK293 cells using Lipofectamine LTX (Invitrogen) during four hours, after which medium was replaced by growth medium (DMEM/10% fetal bovine serum (FBS)/1% penicillin/streptomycin (PS)). […] After one month of passage in selection medium, stably transfected clones for each cell line (293.ATXN3Q26Luc and 293.ATXN3Q81Luc) were pooled and frozen in liquid nitrogen. Stably transfected cell lines were maintained in selection medium except during treatment with specific compounds that were diluted in growth medium.
# Protein lysates from cell cultures, mouse brain slices or mouse brains were obtained by lysis in RIPA buffer containing protease inhibitors (Complete, Roche Diagnostics), followed by sonication and centrifugation. The supernatants (soluble protein fractions) were collected, total protein concentration was determined using the BCA method (Pierce) and then stored at −80° C. Total proteins (50 μg from cell and slice cultures or 75 μg from brain regions of mice) were resolved in 10% SDS-PAGE gels, and corresponding PVDF membranes were incubated overnight at 4° C. with primary antibodies: mouse anti-ATXN3 (1H9) (1:2000; MAB5360, Millipore), goat anti-Luciferase (1:500; G7451, Promega), mouse anti-FLAG (M5) (1:500; IB13091, Sigma), rabbit anti-LC3 (1:500; PM036, MBL International Corporation), mouse anti-HSP90β (1:1000; ADI-SPA842, Enzo Life Sciences), rabbit anti-HSP90α (1:1000; ab2928, Abcam), mouse anti-HSP70 (1:500; SPA810, Enzo Life Sciences), rabbit anti-HSP40 (1:1000; #4868, Cell Signaling), rabbit anti-HSP25 (1:1000; ADI-SPA801, Enzo Life Sciences), rabbit anti-HSF1 (1:1000, ADI-SPA-901, Enzo Life Sciences), rabbit anti-ubiquitin (1:1000, Z 0458, Dako), rabbit anti-RAD23A (1:5000; TA307264, Origene), rabbit anti-RAD23B (1:2000; A302-306A, Bethyl Labs), rabbit anti-α-Tubulin (11H10) (1:10000; #2125, Cell Signaling), and mouse anti-GAPDH (1:1000; MAB374, Millipore). Pellets corresponding to insoluble protein fractions were resuspended in 100 μL of Laemmli buffer 2× and boiled for 10 min. Insoluble proteins were then quantified, and 100 μg were loaded in a filter trap assay apparatus and transferred to a nitrocellulose membrane (0.45 μm pore) that was incubated overnight with rabbit anti-MJD antibody (1:5000) at 4° C. Bound primary antibodies were visualized by incubation with a peroxidase-conjugated anti-mouse or anti-rabbit secondary antibody (1:10000; Jackson Immuno Research Laboratories) followed by treatment with the ECL-plus reagent (Western Lighting, PerkinElmer) and exposure to autoradiography films. Band intensity was quantified by densitometry using ImageJ.
# human mutant ATXN3Q84 = format: cell-based; conditions: sagittal brain slices treated for 48 hours, cerebellum and brainstem
# Method: (§1) Nine slices per brain were used in each set of cultures. […] After 48 hours of incubation at 37° C./5% CO2, brain slices were assessed for ATXN3 levels by immunoblotting or immunofluorescence and for cell viability. For immunoblotting, each slice was macrodissected into separate cerebellum and brainstem that were immediately frozen at −80° C. in 80 μL and 150 μL of cold RIPA buffer containing protease inhibitors (Complete, Roche Diagnostics), respectively. Cell viability was assessed on treated slices by incubation in propidium iodide (PI) 1 μg/mL in culture medium for 1 hour. Slices were then mounted in PROLONG Gold Antifade Reagent (Invitrogen) and imaged using a FV500 Olympus confocal microscope.
# Protein lysates from cell cultures, mouse brain slices or mouse brains were obtained by lysis in RIPA buffer containing protease inhibitors (Complete, Roche Diagnostics), followed by sonication and centrifugation. The supernatants (soluble protein fractions) were collected, total protein concentration was determined using the BCA method (Pierce) and then stored at −80° C. […] Pellets corresponding to insoluble protein fractions were resuspended in 100 μL of Laemmli buffer 2× and boiled for 10 min. Insoluble proteins were then quantified, and 100 μg were loaded in a filter trap assay apparatus and transferred to a nitrocellulose membrane (0.45 μm pore) that was incubated overnight with rabbit anti-MJD antibody (1:5000) at 4° C. Bound primary antibodies were visualized by incubation with a peroxidase-conjugated anti-mouse or anti-rabbit secondary antibody (1:10000; Jackson Immuno Research Laboratories) followed by treatment with the ECL-plus reagent (Western Lighting, PerkinElmer) and exposure to autoradiography films. Band intensity was quantified by densitometry using ImageJ.
# To assess the efficacy of the five compounds to reduce ATXN3 levels in the mammalian brain, secondary screens in organotypic brain slice cultures derived from hemizygous YACMJD84.2 (Q84) transgenic mice were performed.
# mouse Atxn3 = assay: Organotypic brain slice cultures from YACMJD84.2 (Q84) mice, immunoblotting; format: cell-based; conditions: sagittal brain slices treated for 48 hours, cerebellum and brainstem
# Method: as §1
# Protein lysates from cell cultures, mouse brain slices or mouse brains were obtained by lysis in RIPA buffer containing protease inhibitors (Complete, Roche Diagnostics), followed by sonication and centrifugation. The supernatants (soluble protein fractions) were collected, total protein concentration was determined using the BCA method (Pierce) and then stored at −80° C. […] Insoluble proteins were then quantified, and 100 μg were loaded in a filter trap assay apparatus and transferred to a nitrocellulose membrane (0.45 μm pore) that was incubated overnight with rabbit anti-MJD antibody (1:5000) at 4° C. […] Band intensity was quantified by densitometry using ImageJ. […]
Structure (SMILES),levels of ATXN3Q81.Luc fusion protein [1],levels of human mutant ATXN3Q84 (human mutant ATXN3Q84),levels of mouse Atxn3 (mouse Atxn3)
Cc1c(C(=O)NN2CCCCC2)nn(-c2ccc(Cl)cc2Cl)c1-c1ccc(I)cc1 [AM251],confirmed to decrease levels of ATXN3Q81.Luc fusion protein,,
Clc1ccccc1C(c1ccccc1)(c1ccccc1)n1ccnc1 [clotrimazole],confirmed to decrease levels of ATXN3Q81.Luc fusion protein,did not alter ATXN3 levels,
CC#C[C@]1(O)CC[C@H]2[C@@H]3CCC4=CC(=O)CCC4=C3[C@@H](c3ccc(N(C)C)cc3)C[C@@]21C [mifepristone],confirmed to decrease levels of ATXN3Q81.Luc fusion protein,did not alter ATXN3 levels,
CC[C@@H](C(=O)[C@@H](C)[C@@H](O)[C@H](C)[C@@H]1O[C@@H]([C@@H](CC)C(=O)O)CC[C@@H]1C)[C@H]1O[C@]2(C=C[C@@H](O)[C@]3(CC[C@@](C)([C@H]4CC[C@](O)(CC)[C@H](C)O4)O3)O2)[C@H](C)C[C@@H]1C [salinomycin sodium],confirmed to decrease levels of ATXN3Q81.Luc fusion protein,reduced levels,reduced levels
